The NIST ThermoML archive (doi:10.1021/je034228o)
± gives the expanded uncertainty stated by the source.

Conditions: Crystal; DTA

Row | Structure (SMILES) | Normal melting temperature [°C]
1 | CC(C)Cc1ccc([C@H](C)C(=O)O)cc1 [(S)-2-(4-isobutylphenyl)propanoic acid] | 51.1 ± 0.5
2 | CC(C)Cc1ccc(C(C)C(=O)O)cc1 (configuration not stated) [ibuprofen] | 76.1 ± 0.5
